In series [1] the test system is SKOV-3 ovarian cancer cells. As to the kind of experiment: MTS cytotoxicity and combination index, SKOV-3. It is filed as cell-based, human. The conditions noted are these: 72 h. The procedure: (§1) In vitro synergistic cytotoxicity: The cytotoxicity of blank micelles and drug-loaded micelle were assessed by measuring the cell viability using the standard MTS assay. SKOV-3 ovarian cancer cells and ES-2 ovarian cancer cells were seeded in 96-well plates at 4×10^3 cells per well in 100 μL of McCoy's 5A with L-glutamine containing 10% fetal bovine serum, supplemented with 50 U/mL penicillin and 50 U/mL streptomycin, and incubated at 37° C. in 5% CO2 atmosphere for 24 h. Different concentrations of the empty micelle solutions and drug-loaded micelles were added into the cell medium. After 72 h incubation, Cell Titer 96® Aqueous Cell Proliferation Reagent, which is composed of MTS and an electron coupling reagent PMS, was added to each well according to the manufacturer's instructions. The cell viability was determined by measuring the absorbance at 490 nm using a micro-plate reader. […]
(§2) The effective method to evaluate synergistic drug combinations in vitro is median-effect analysis, as originally proposed by Chou and Talalay (Chou T C. Theoretical basis, experimental design, and computerized simulation of synergism and antagonism in drug combination studies. Pharmacol Rev. 2006; 58:621-81. Chou T C, Talalay P. Quantitative analysis of dose-effect relationships: the combined effects of multiple drugs or enzyme inhibitors. Adv Enzyme Regul. 1984; 22:27-55.). […]

In series [2] the test system is ES-2 ovarian cancer cells. Briefly: MTS cytotoxicity and combination index, ES2. The class given is cell-based. To be noted: 72 h. As to the method: as §1, §2
The test system of another series is Hela cells. Briefly: MTS cytotoxicity and combination index, Hela. It is filed as cell-based. The conditions noted are these: 72 h.
A short description of series [3]: Pharmacokinetics of platinum in plasma after i.v. injection. The class given is in vivo, mice. The procedure: Pharmacokinetics and biodistribution. The blood pharmacokinetics study were performed using female SPF BALB/c mice, which were purchased from Charles River Laboratories Inc. Nanocarriers were administered into mice via tail vein injection with free drug mixture of CDDP/PTX or co-loading TM (CDDP/PTX=2:1) solution at a single equivalent dose of CDDP/PTX 6/3 mg/kg via tail vein. At defined time points (5 min, 0.5 h, 1 h, 2 h, 4 h, 8 h, 24 h and 48 h), blood samples were collected into heparinized tubes and immediately centrifuged at 1,000 rpm for 15 min to obtain plasma. Plasma samples were dissolved on heat in nitric acid and the platinum contents were measured by ICP-MS. The percentage of injected dose in plasma was calculated considering plasma volume in mice to be 45.6 mL/kg. (King F G, Dedrick R L. Physiological pharmacokinetic parameters for cis-dichlorodiammineplatinum(II) (DDP) in the mouse. J Pharmacokinet Biopharm. 1992; 20:95-9.)

Series [4] in a line: Tissue biodistribution of Pt by ICP-MS. The conditions noted are these: 48 h post-injection. The class given is in vivo, nude mice. As to the method: Free CDDP and TM (CDDP/PTX=2:1) were injected into nude mice via tail vein at a single equivalent dose of CDDP 6 mg/kg. At 48 h post-injection, major organs (heart, liver, spleen, lung and kidney) and tumor tissues were harvested from the mice. The organs were weighed and dissolved in the concentrated nitric acid by heating up (70° C.) and evaporated to dryness, and then re-dissolved in 0.1N HCl for tissue biodistribution of Pt analysis by ICP-MS.

The conditions of series [5]: cancer treatment in mouse models; cited from earlier work.
For series [6], the system named is SKOV-3 ovarian cancer xenografts. Briefly: In vivo anticancer efficacy.
Experimental: Xenograft Mouse Models. Female athymic nude mice (Nu/Nu strain), 5-6 weeks age, were purchased from Harlan (Livermore, Calif.). All animals were kept under pathogen-free conditions according to AAALAC (Association for Assessment and Accreditation of Laboratory Animal Care) guidelines and were allowed to acclimatize for at least 4 days prior to any experiments. All animal experiments were performed in compliance with institutional guidelines and according to protocol approved by the Animal Use and Care Administrative Advisory Committee. SKOV-3 ovarian cancer cells (7×10^6) in a 100/IL of mixture of PBS and Matrigel (1:1 v/v) without fetal bovine serum (FBS) were injected subcutaneously into the flanks of nude mice to form nodules.
In vivo anticancer efficacy. Nude mice bearing human SKOV3 ovarian cancer tumor (approximately 150 mm^3) were randomly divided into 6 groups (n=5), including control (PBS only), free CDDP (4 mg/kg CDDP), TM(PTX) (3 mg/kg PTX), PEG(CDDP) (4 mg/kg CDDP), TM(CDDP) (6 mg/kg CDDP), and TM(CDDP/PTX=2:1) (6 mg/kg CDDP, 3 mg/kg PTX). Treatments were administered 3 times totally via tail vein on day 0, 4 and 8. Animal body weight and tumor volume were monitored every second day. Seven days after the last treatment, about 100 μL of blood was collected via tail bleeding for blood counts. The tumor sizes were measured with electronic calipers, and calculated using the following formula: V=(shortest diameter^2×longest diameter)/2.
For series [7] the following is noted: in vivo; cited from earlier work.
Series [8] has as its system wide variety of cancer cells in culture. To be noted: cited from earlier work.
The nature of series [9]: DOX release, dialysis against PBS. The class given is physicochemical. To be noted: dialysis against PBS at 37° C. As to the method: DOX Release. 1 mL of DOX-PEG^5KCHA4-L-Rh4 (1.5:15.0) solution was distributed into three dialysis tube and dialyzed against 50 ml PBS at 37° C., respectively, in comparison with free DOX. The samples were placed in conical tubes filled with PBS, which was refreshed at the time of UV-Vis measuring at 550 nm (FIG. 13). The free DOX was completely released by 10 hours but the loaded DOX remained encapsulated at around 50% by the time the study was finished at 96 hours. This indicates the high DOX binding affinity within PEG^5KCHA4-L-Rh4 micelles and a sustained DOX release would reduce in vivo toxicity of payload drug and increase tumor targeting effects via the prolonged circulating to take EPR effects.

The next series deals with SKOV-3 tumor xenograft. Briefly: NIRF optical animal imaging, in vivo and ex vivo. Further details: species or system nude mice. To be noted: in vivo whole body imaging. As to the method: DiD (a hydrophobic near-infrared (NIR) cyanine dye) was encapsulated in each nanocarrier (together with PTX and CDDP) at a ratio of 2:1:0.1 (CDDP/PTX/DiD by weight) using the same method as described above. The particle size was measured by DLS analysis. 100 μL of TM(DiD-PTX-CDDP) solution was filtered with a 0.22 μm filter to sterilize solution before injection. At the same time, same amount of DiD in DMSO solution was diluted with PBS right before I.V. injection. The fluorescent DiD co-loaded TM with equivalent dose of 6 mg/kg CDDP were injected into nude mice bearing SKOV-3 tumor xenograft via tail vein. Mice were anesthetized via isoflurane and optically imaged at different time points (1 h, 2 h, 4 h, 8 h, 24 h, 48 h and 72 h) using an IVIS 200 (PerkinElmer) with the (excitation/emission 625/700 nm). At the end of the experiments, the animals were sacrificed and all the major organs as well as tumors were excised for ex vivo imaging to determine the in vivo biodistribution of nanoparticles. The associated fluorescence intensities were determined by Living Image software (Caliper Life Sciences) using operator-defined regions of interest (ROI) measurements.

Where [10] appears, read: first figure of co-loaded cells.
The mark [11] stands for this setting: platinum in plasma, i.v., two compartment model.

Where “and” joins values, the source holds several entries; their conditions need not be identical. Equal entries are not always repeated.

With `[NH2][Pt]([NH2])([Cl])[Cl]` [CDDP, Cisplatin], the “SKOV-3 IC50, CDDP concentration” value in series [1] (first figure of co-loaded cells (CDDP/PTX)) is listed as 1354 ng/mL. The “ES2 IC50, CDDP concentration” value in [2] (setting [10]) is given as 920 ng/mL. In addition, the “Hela IC50, CDDP concentration” value with Hela cells (setting [10]) was 2427 ng/mL. The “Pt of the injected dose in plasma” value in series [3] (30 min after injection) is 5%. The “Pt of the injected dose in plasma” value in [3] (24 h post injection) is “less than 1%”. Also, the maximum concentration (Cmax) (as a rule, the peak of the concentration-time curve) in [3] (platinum in plasma, 5 min post iv injection) is 27.6 µg/mL and 27.58 µg/mL. For the same compound, in series [3] (platinum in plasma, i.v.), the AUC (commonly the area under the concentration-time curve, a measure of exposure) turned out to be 30.8 µg·h/mL; the CL is reported as 129.87 mL/kg/h; the CL2 came to 559.30 mL/kg/h; the Vss (as a rule, the apparent volume that relates the amount in the body to the concentration in plasma or blood) is 668.10 mL/kg. In series [3] (setting [11]), the t1/2α was 2.64 min and the t1/2β was 4.30 h. For the same compound, in series [4], the “kidney/tumor ratio of Pt concentrations” value turned out to be 4 and the “liver/tumor ratio of Pt concentrations” value is 2. The “maximum tolerated dose (MTD)” value in [5] is given as at most 4 mg/kg. In addition, the medium survival time in series [6] (4 mg/kg CDDP) came out at 15 days. Besides, in series [6] (4 mg/kg CDDP on days 0, 4, 8, day 12), the body weight loss result was “exceeded 20%”. Further, the mortality result in series [6] (4 mg/kg CDDP, deaths on day 12, 13, 15, 16 and 17) was “died”. Moreover, the “WBC count versus PBS control” value in series [6] (day 7 after the last injection, 4 mg/kg CDDP) is on record as “significantly decreased”.

Turning to `CC(=O)O[C@H]1C(=O)[C@@]2(C)[C@H]([C@H](OC(=O)c3ccccc3)[C@]3(O)C[C@H](OC(=O)[C@H](O)[C@@H](NC(=O)c4ccccc4)c4ccccc4)C(C)=C1C3(C)C)[C@]1(OC(C)=O)CO[C@@H]1C[C@@H]2O` [PTX, paclitaxel], the IC50 worked out at 0.032 µg/mL in [1] (Homo sapiens, SK-OV-3, second figure of co-loaded cells (CDDP/PTX), read-out: SKOV-3 IC50, PTX concentration); 0.055 µg/mL in [2] (second figure of co-loaded cells, read-out: ES2 IC50, PTX concentration); 0.02 µg/mL in the series on Hela cells (Homo sapiens, HeLa, second figure of co-loaded cells, read-out: Hela IC50, PTX concentration). The t1/2 in human in series [7] is 20.4 min. For the same compound, the “potency relative to CDDP (IC50s: low nM vs low μM)” value in series [8] is given as around 1000 times.

Take `COc1cccc2c1C(=O)c1c(O)c3c(c(O)c1C2=O)C[C@@](O)(C(=O)CO)C[C@@H]3O[C@H]1C[C@H](N)[C@H](O)[C@H](C)O1` [free DOX, Doxorubicin]: the “time to complete DOX release” value in [9] is at most 10 h.

`CCCCCCCCCCCCCCCCCCN1C(=CC=CC=CC2=[N+](CCCCCCCCCCCCCCCCCC)c3ccccc3C2(C)C)C(C)(C)c2ccccc21.[O-][Cl+3]([O-])([O-])[O-]` [free DiD, 1,1′-dioctadecyl-3,3,3,′,3′-tetramethylindodicarbocyanine perchlorate]: in the series on SKOV-3 tumor xenograft, the tumor fluorescence result is listed as “very weak tumor fluorescence”.

The record behind these values is patent US10463694B2, “Functional segregated telodendrimers and nanocarriers and methods of making and using same” (The Research Foundation for the State University of New York, priority 2014, dated 2019).
